# Laboratory results reported in US10695315B2, “Composition comprising avermectin compounds without gelling agents” (Nestlé Skin Health SA, priority 2016, dated 2020).
# Experiment: Physical stability of the composition over time
# Format: physicochemical
# Conditions: in composition 2, over time (three months, 5° C. and RT)
# Description: “Physical stability” means that the composition meets the acceptance criteria for appearance, physical attributes and functionality test (e.g. color, phase separation, dose delivery per actuation).
# The table below represents physical stability of the composition 2 according to the invention at 5° C. and room temperature (RT) during three months.
substance,measurement,value
ivermectin,"Ivermectin solubilized state, crystals formation","remains solubilized over time, no crystals formation"
